The data set concerns the target T1, Human CYP8B1 (Homo sapiens, UniProt Q9UNU6).
T1 construct: tissue Xenotech; host or cells: human liver microsomes
T1 sequence (Q9UNU6 1-501): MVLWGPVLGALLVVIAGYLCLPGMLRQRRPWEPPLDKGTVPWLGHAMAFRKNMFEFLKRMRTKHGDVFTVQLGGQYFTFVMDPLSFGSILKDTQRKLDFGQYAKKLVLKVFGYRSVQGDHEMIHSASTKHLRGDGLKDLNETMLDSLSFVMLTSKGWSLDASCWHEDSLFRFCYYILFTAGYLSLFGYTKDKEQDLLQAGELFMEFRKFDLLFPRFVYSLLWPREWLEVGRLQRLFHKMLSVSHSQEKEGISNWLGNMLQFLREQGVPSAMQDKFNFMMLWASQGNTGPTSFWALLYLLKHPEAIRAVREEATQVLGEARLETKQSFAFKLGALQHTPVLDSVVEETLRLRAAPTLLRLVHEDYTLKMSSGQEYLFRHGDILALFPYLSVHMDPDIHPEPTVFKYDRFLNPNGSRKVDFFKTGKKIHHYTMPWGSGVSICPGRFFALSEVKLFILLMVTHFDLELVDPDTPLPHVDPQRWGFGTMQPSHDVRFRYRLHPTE
Put plainly: Human Cyp8B1 Liver Microsome Assay. The data set is classed as biochemical. The conditions noted are these: human liver microsomes; substrate 7α-hydroxy-4-cholesten-3-one, NADPH; 30 min pre-incubation, 45 min reaction; RapidFire MS readout. As to the method: Human Cyp8B1 Liver Microsome Assay To a 384 well polypropylene plate (Corning 3656), 250 nl of inhibitor in 100% DMSO (1.25% final DMSO concentration) was pre-plated using an Echo liquid handler (Labcyte Inc.). Human liver microsomes (Xenotech) were diluted in of 0.1 M phosphate buffer, pH 7.4, at a concentration of 65 μg/ml and 15 μL was added to the 384 well plate. The plates were incubated at ambient room temperature for 30 minutes. After pre-incubation with inhibitor, the reaction was initiated by adding 5 μl of substrate solution (4.0 μM 7α-hydroxy-4-cholesten-3-one(Toronto Research Chemicals), 2 mM of NADPH (Sigma), 0.1 M phosphate buffer (pH 7.4). The reaction was carried out for 45 minutes at ambient room temperature and was quenched by the addition of 50 μl of acetonitrile+0.1% vol/vol formic acid (FA)+300 nM 7α-hydroxy-4-cholesten-3-one-d7 (Toronto Research Chemicals). The plates were sealed and centrifuged at 3000 rpm for 5 minutes. Plates were loaded onto the Agilent RapidFire RF300 HTMS system, wherein samples were sipped for 600 ms, and the sip sensor detection signals the diversion of sample from the loop onto a C4 solid phase extraction (SPE) cartridge, where salts are washed off for 2500 ms with a mobile phase of water with 0.1% vol/vol FA at a flow rate of 1.5 ml/min. The column path is switched, and the sample is eluted off the cartridge and flowed into the mass spectrometer for 3000 ms with a mobile phase of acetonitrile and 0.1% vol/vol FA at a flow rate of 1.25 ml/min. The aspirator tip was washed separately with water and acetonitrile between sample aspirations (each for 600 ms) to minimize carryover contamination. Mass spectrometry was carried out using a Sciex API4000 triple quadrupole mass spectrometer (Applied Biosystems, Concord, ON, Canada) equipped with electrospray ionization (ESI) operated in the positive-ion mode. The product 7α, 12α-dihydroxy-4-cholesten-3-one and internal standard 7α-hydroxy-4-cholsten-3-one-d7 were detected using multiple reaction monitoring (MRM) with Q1/Q3 transitions at m/z 417.3 to 381.3 and m/z 408.3 to 390.3, respectively, with a dwell time of 100 ms and a collision energy of 24 V for each transition. The mass spectrometer used an ESI voltage of 5000 V and a source temperature of 650° C. Extracted ion chromatograms for each transition were integrated and processed using the RapidFire Integrator software. The data for each well were normalized by monitoring product conversion with the ratio of AUCproduct/(AUCinternal standard). The data was then fitted to a four parameter logistic fit using ActivityBase Software to calculate an IC50 of the inhibitor.

The source of these data is patent US10414775B2 (Merck Sharp & Dohme Corp., priority 2016, dated 2019).

Counter-ions that a name gives are not always drawn.

`C[C@@H]1CN(c2ccnc3ccc(Cl)cc23)CC[C@@H]1C(=O)N1CCn2c(nnc2C(F)(F)F)C1` (single isomer, unassigned) [Example 11a] showed an IC50 of 3.5 nM. `C[C@H]1CN(c2ccnc3ccc(Cl)cc23)CC[C@H]1C(=O)N1CCn2c(nnc2C(F)(F)F)C1` (single isomer, unassigned) [Example 11b] returned an IC50 of 1180 nM.

Consider `C[C@H](O)c1ccc2c(N3CC[C@H](C(=O)N4CCn5c(nnc5C(F)(F)F)C4)[C@H](C)C3)c(Cl)cnc2c1` (single isomer, unassigned) [Example 44a], for which 0.34 nM corresponded to half-maximal inhibition (IC50). Turning to `C[C@@H]1CN(c2c(Cl)cnc3cc([C@@H](C)O)ccc23)CC[C@@H]1C(=O)N1CCn2c(nnc2C(F)(F)F)C1` (single isomer, unassigned) [Example 44b], the IC50 turned out to be 1.2 nM. Turning to `CCOC(=O)c1cnc2ccc(F)cc2c1N1CC[C@H](C(=O)N2CCn3c(nnc3C(F)(F)F)C2)[C@H](C)C1` [Example 1, ethyl 6-fluoro-4-[(3S,4S)-3-methyl-4-{[3-(trifluoromethyl)-5,6-dihydro[1,2,4]triazolo[4,3-a]pyrazin-7(8H)-yl]carbonyl}piperidin-1-yl]quinoline-3-carboxylate], 3680 nM corresponded to half-maximal inhibition (IC50).

As to `C[C@@H]1CN(c2ccnc3cc(Cl)cnc23)CC[C@@H]1C(=O)N1CCn2c(nnc2C(F)(F)F)C1` [Example 2, ((3S,4S)-1-(7-chloro-1,5-naphthyridin-4-yl)-3-methylpiperidin-4-yl)(3-(trifluoromethyl)-5,6-dihydro-[1,2,4]triazolo[4,3-a]pyrazin-7(8H)-yl)methanone], the IC50 worked out at 18 nM. The molecule `COc1ccc2c(N3CC[C@H](C(=O)N4CCn5c(nnc5C(F)(F)F)C4)[C@H](C)C3)c(Cl)cnc2c1` [Example 3, ((3S,4S)-1-(3-chloro-7-methoxyquinolin-4-yl)-3-methylpiperidin-4-yl)(3-(trifluoromethyl)-5,6-dihydro-[1,2,4]triazolo[4,3-a]pyrazin-7(8H)-yl)methanone] gave an IC50 of 0.2 nM. Next, `C[C@@H]1CN(c2c(Cl)cnc3cc(F)ccc23)CC[C@@H]1C(=O)N1CCn2c(nnc2C(F)(F)F)C1` [Example 4, ((3S,4S)-1-(3-chloro-7-fluoroquinolin-4-yl)-3-methylpiperidin-4-yl)(3-(trifluoromethyl)-5,6-dihydro-[1,2,4]triazolo[4,3-a]pyrazin-7(8H)-yl)methanone]: 0.6 nM; `C[C@@H]1CN(c2c(C(F)(F)F)cnc3ccccc23)CC[C@@H]1C(=O)N1CCn2c(nnc2C(F)(F)F)C1` [Example 5, ((3S,4S)-3-methyl-1-(3-(trifluoromethyl)quinolin-4-yl)piperidin-4-yl)(3-(trifluoromethyl)-5,6-dihydro-[1,2,4]triazolo[4,3-a]pyrazin-7(8H)-yl)methanone]: 1 nM; `C[C@@H]1CN(c2c(Cl)cnc3c(F)cccc23)CC[C@@H]1C(=O)N1CCn2c(nnc2C(F)(F)F)C1` [Example 6, ((3S,4S)-1-(3-chloro-8-fluoroquinolin-4-yl)-3-methylpiperidin-4-yl)(3-(trifluoromethyl)-5,6-dihydro-[1,2,4]triazolo[4,3-a]pyrazin-7(8H)-yl)methanone]: 0.9 nM.

For `C[C@@H]1CN(c2c(C(F)F)cnc3c(F)c(Cl)ccc23)CC[C@@H]1C(=O)N1CCn2c(nnc2C(F)(F)F)C1` [Example 7, ((3S,4S)-1-(7-chloro-3-(difluoromethyl)-8-fluoroquinolin-4-yl)-3-methylpiperidin-4-yl)(3-(trifluoromethyl)-5,6-dihydro-[1,2,4]triazolo[4,3-a]pyrazin-7(8H)-yl)methanone], the IC50 was determined as 0.7 nM.

With `COc1cnc2c(N3CC[C@H](C(=O)N4CCn5c(nnc5C(F)(F)F)C4)[C@H](C)C3)c(Cl)cnc2c1` [Example 8, ((3S,4S)-1-(3-chloro-7-methoxy-1,5-naphthyridin-4-yl)-3-methylpiperidin-4-yl)(3-(trifluoromethyl)-5,6-dihydro-[1,2,4]triazolo[4,3-a]pyrazin-7(8H)-yl)methanone], the IC50 came out at 1.2 nM. `COc1ccc2c(N3CC[C@H](C(=O)N4CCn5c(nnc5C(F)(F)F)C4)[C@H](C)C3)c([N+](=O)[O-])cnc2c1` [Example 9, ((3S,4S)-1-(7-methoxy-3-nitroquinolin-4-yl)-3-methylpiperidin-4-yl)(3-(trifluoromethyl)-5,6-dihydro-[1,2,4]triazolo[4,3-a]pyrazin-7(8H)-yl)methanone] yielded an IC50 of 0.2 nM. Then `CC1CN(c2ccnc3ccc(Cl)cc23)CCC1C(=O)N1CCn2c(nnc2C(F)(F)F)C1` (stereo not drawn) [Example 10, [1-(6-chloroquinolin-4-yl)-3-methylpiperidin-4-yl][3-(trifluoromethyl)-5,6-dihydro[1,2,4]triazolo[4,3-a]pyrazin-7(8H)-yl]methanone], with 8.5 nM. Then `C[C@@H]1CN(c2ccnc3cc(C(F)(F)F)ccc23)CC[C@@H]1C(=O)N1CCn2c(nnc2C(F)(F)F)C1` [Example 12, {(3S,4S)-3-methyl-1-[7-(trifluoromethyl)quinolin-4-yl]piperidin-4-yl}[3-(trifluoromethyl)-5,6-dihydro[1,2,4]triazolo[4,3-a]pyrazin-7(8H)-yl]methanone], with 5.2 nM; and `Cc1cc(N2CC[C@H](C(=O)N3CCn4c(nnc4C(F)(F)F)C3)[C@H](C)C2)c2cc(Cl)ccc2n1` [Example 13, [(3S,4S)-1-(6-chloro-2-methylquinolin-4-yl)-3-methylpiperidin-4-yl][3-(trifluoromethyl)-5,6-dihydro[1,2,4]tria-zolo[4,3-a]pyrazin-7(8H)-yl]methanone], with 3040 nM; and `C[C@@H]1CN(c2ccnc3ccc(F)cc23)CC[C@@H]1C(=O)N1CCn2c(nnc2C(F)(F)F)C1` [Example 14, [(3S,4S)-1-(6-fluoroquinolin-4-yl)-3-methylpiperidin-4-yl][3-(trifluoromethyl)-5,6-dihydro[1,2,4]tria-zolo[4,3-a]pyrazin-7(8H)-yl]methanone], with 52 nM. `Cc1cc(N2CC[C@H](C(=O)N3CCn4c(nnc4C(F)(F)F)C3)[C@H](C)C2)c2cc(F)ccc2n1` [Example 15, [(3S,4S)-1-(6-fluoro-2-methylquinolin-4-yl)-3-methylpiperidin-4-yl][3-(trifluoromethyl)-5,6-dihydro[1,2,4]tria-zolo[4,3-a]pyrazin-7(8H)-yl]methanone] yielded an IC50 of 245 nM. Then `Cc1nc2ccc(F)cc2c(N2CC[C@H](C(=O)N3CCn4c(nnc4C(F)(F)F)C3)[C@H](C)C2)c1C` [Example 16, [(3S,4S)-1-(6-fluoro-2,3-dimethylquinolin-4-yl)-3-methylpiperidin-4-yl][3-(trifluoromethyl)-5,6-dihydro[1,2,4]tria-zolo[4,3-a]pyrazin-7(8H)-yl]methanone], with 37 nM. Then `Cc1cc(N2CC[C@H](C(=O)N3CCn4c(nnc4C(F)(F)F)C3)[C@H](C)C2)c2cc(F)cc(F)c2n1` [Example 17, [(3S,4S)-1-(6,8-difluoro-2-methylquinolin-4-yl)-3-methylpiperidin-4-yl][3-(trifluoromethyl)-5,6-dihydro[1,2,4]tria-zolo[4,3-a]pyrazin-7(8H)-yl]methanone], with 145 nM; and `Cc1cc(N2CC[C@H](C(=O)N3CCn4c(nnc4C(F)(F)F)C3)[C@H](C)C2)c2ccc(F)c(F)c2n1` [Example 18, 7,8-difluoro-2-methyl-4-[(3S,4S)-3-methyl-4-{[3-(trifluoromethyl)-5,6-dihydro[1,2,4]tria-zolo[4,3-a]pyrazin-7(8H)-yl]carbonyl}piper-idin-1-yl]quinolinium trifluoroacetate], with 385 nM.
